Laboratory results published in the SangsterLogP compilation.

assay: method code SF-AS, from DOI: 10.1002/jps.2600830428, PMID: 8046619; conditions: pH 7.4

| logD | SMILES |
| --- | --- |
| -1.15 | O=c1nc(N=CN2CCCC2)ccn1[C@@H]1O[C@H](CO)[C@@H](O)[C@@H]1O |
| -1.66 | O=c1nc(N=CN2CCOCC2)ccn1[C@@H]1O[C@H](CO)[C@@H](O)[C@@H]1O |
| -1.54 | O=c1nc(/N=C/N2CCOCC2)ccn1[C@H]1C[C@H](O)[C@@H](CO)O1 |
